Laboratory results reported in US12115157B2, “3-phenoxyazetidin-1-yl-heteroaryl pyrrolidine derivatives and the use thereof as medicament” (Boehringer Ingelheim International GmbH, priority 2021, dated 2024).

Columns and labels:
human GPR52 = human GPR52 (Homo sapiens (Human), UniProt Q9Y2T5); test: HTRF assay for direct cAMP measurement; assay type: cell-based; conditions: CHO-K1 cells stably expressing recombinant human GPR52, mean EC50
Description: HTRF cAMP assays were performed using commercially available assay kits according to the manufacturer's instructions (cAMP Dynamic 2 Assay Kit; #62AM4PEJ, Cisbio Bioassays, Bedford, MA). An aliquot of CHO-K1 cells stably expressing recombinant human GPR52 was thawed and resuspended in cell buffer (1×PBS (w/o Ca^2+/Mg^2+)) at a density of 4×10^5 cells per mL. Test compounds were solubilized in DMSO to 10 mM stock solutions and serially diluted in DMSO using 6-fold dilutions to generate 8-point dose response curves. These serially diluted samples were then diluted 1:50 in compound dilution buffer (1×PBS (w/o Ca^2+/Mg^2+) containing 0.5 mM IBMX, 0.1% BSA) to achieve a 4× stock. The diluted compounds were transferred (5 μL per well) in duplicate to the 384-well assay plate (Optiplate #6007290, PerkinElmer, Waltham, MA). Both a positive (reference compound) and negative (non-stimulated vehicle) control was included in each assay run in column 23. The cell suspension was subsequently dispensed into the 384-well assay plates at 15 μL per well (6000 cells) such that the compound was diluted to 1×. […] After a one-hour incubation at room temperature, 10 μL of cAMP D2 reagent followed by 10 μL of cryptate reagent (provided in the Cisbio kit) was added to each well. Plates were then incubated at room temperature for one hour prior to reading. Time-resolved fluorescence measurements were collected on an EnVision® HTRF plate reader (PerkinElmer, Waltham, MA). Counts from the plate reader were fit to the cAMP standard curve included on each plate to determine the amount of cAMP in each test well. The % control was calculated based on the […]. Dose-response curves were generated from the cAMP data and analyzed using a nonlinear least squares curve-fitting program to obtain EC50 values.

hERG channel = hERG channel (Homo sapiens (Human), UniProt Q12809); test: hERG channel assay (whole-cell patch clamp); assay type: cell-based; conditions: HEK293 cells stably transfected with hERG cDNA
Chain of hERG channel (Q12809 whole entry): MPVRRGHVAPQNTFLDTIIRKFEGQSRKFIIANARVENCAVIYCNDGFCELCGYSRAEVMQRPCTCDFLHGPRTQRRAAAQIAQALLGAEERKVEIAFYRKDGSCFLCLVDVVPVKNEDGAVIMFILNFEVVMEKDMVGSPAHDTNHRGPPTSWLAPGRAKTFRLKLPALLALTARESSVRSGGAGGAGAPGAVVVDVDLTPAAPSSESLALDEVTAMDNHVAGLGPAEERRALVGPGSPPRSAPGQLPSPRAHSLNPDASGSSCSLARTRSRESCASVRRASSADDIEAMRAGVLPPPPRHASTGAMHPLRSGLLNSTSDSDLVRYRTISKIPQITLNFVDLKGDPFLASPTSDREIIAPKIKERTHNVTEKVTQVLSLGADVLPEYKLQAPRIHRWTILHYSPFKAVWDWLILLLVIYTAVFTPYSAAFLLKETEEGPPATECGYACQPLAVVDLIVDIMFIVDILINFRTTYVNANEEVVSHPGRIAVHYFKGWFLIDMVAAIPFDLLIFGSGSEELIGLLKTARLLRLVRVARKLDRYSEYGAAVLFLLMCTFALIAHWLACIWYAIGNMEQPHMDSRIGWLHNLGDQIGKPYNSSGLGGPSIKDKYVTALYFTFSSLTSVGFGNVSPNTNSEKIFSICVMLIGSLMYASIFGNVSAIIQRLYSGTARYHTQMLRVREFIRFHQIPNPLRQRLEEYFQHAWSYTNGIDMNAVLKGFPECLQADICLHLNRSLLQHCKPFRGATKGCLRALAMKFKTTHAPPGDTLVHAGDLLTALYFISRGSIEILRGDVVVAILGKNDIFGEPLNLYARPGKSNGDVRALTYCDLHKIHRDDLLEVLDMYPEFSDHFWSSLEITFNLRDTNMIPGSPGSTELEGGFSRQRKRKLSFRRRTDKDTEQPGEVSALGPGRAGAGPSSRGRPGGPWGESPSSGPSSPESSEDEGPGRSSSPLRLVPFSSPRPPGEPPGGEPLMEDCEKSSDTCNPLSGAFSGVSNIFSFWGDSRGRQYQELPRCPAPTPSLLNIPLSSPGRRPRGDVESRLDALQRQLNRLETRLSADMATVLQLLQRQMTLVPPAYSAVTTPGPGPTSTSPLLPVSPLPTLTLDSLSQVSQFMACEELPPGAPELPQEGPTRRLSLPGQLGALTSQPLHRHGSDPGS
Text: hERG Channel inhibition of compounds of the present invention was investigated as follows:
HEK (human embryonic kidney) 293 cells were stably transfected with hERG cDNA. Cells determined for use in patch clamp experiments were cultivated without antibiotic.
Cells were superfused with a bath solution containing (mM): NaCl (137), KCl (4.0), MgCl2 (1.0), CaCl2(1.8), Glucose (10), HEPES (10), pH 7.4 with NaOH. Patch pipettes were made from borosilicate glass tubing using a pipette and filled with pipette solution containing (mM): K-aspartate (130), MgCl2(5.0), EGTA (5.0), K2ATP (4.0), HEPES (10.0), pH 7.2 with KOH. Resistance of the microelectrodes was typically in the range between 2 MΩ and 5 MΩ.
Membrane currents were recorded using an EPC-10 patch clamp amplifier (HEKA Electronics, Lambrecht, FRG) and PatchMaster software (HEKA). hERG-mediated membrane currents were recorded at typically 28° C., using the whole-cell configuration of the patch-clamp technique. Transfected HEK293 cells were clamped at a holding potential of −60 mV and hERG-mediated inactivating tail currents were elicited using a pulse pattern with fixed amplitudes (activation/inactivation: 40 mV for 2000 ms; recovery: 120 mV for 2 ms; ramp to 40 mV in 2 ms; inactivating tail current: 40 mV for 50 ms) repeated at 15 s intervals. During each inter-pulse interval 4 pulses scaled down by a factor of 0.2 were recorded for a P/n leak subtraction procedure. Rs compensation was employed up to a level that safely allows recording devoid of ringing. The remaining uncompensated Rs was recorded as well as actual temperature and holding current.
The concentrations of the test item were applied sequentially on each of the different cells investigated. A steady state level of baseline current was measured for at least 5 sweeps prior to the application of the first test article concentration. The test item was dissolved in DMSO to yield a stock solution of 1000-fold the highest final concentration. This stock was diluted further in DMSO to stock solutions of 1000-fold the remaining final concentrations. Final dilutions in extracellular buffer were prepared freshly from these stocks by a 1:1000 dilution step each before starting the experiments.
Peak current amplitudes were measured 3 ms after the ramp to +40 mV. For baseline and each concentration, the peak currents of the three last sweeps before application of the next concentration were averaged. Residual currents (I/I0) were calculated for each cell as the fraction of actual average peak current and average baseline peak current. Current inhibition was expressed as […]. Current inhibition for all cells was reported as mean ±SD. If possible, from mean current inhibition data the IC50 was estimated based on the Hill equation using a least squares procedure.

human plasma proteins = test: Human plasma protein binding assay (equilibrium dialysis); assay type: in vitro ADME; conditions: 1 μM, 2 hours, 37° C.
Description: Equilibrium dialysis (ED) technique was used to determine the approximate in vitro fractional binding of test compounds to plasma proteins. Dianorm Teflon dialysis cells (micro 0.2) were used. Each dialysis cell consists of a donor and an acceptor chamber, separated by an ultrathin semipermeable membrane with a 5 kDa molecular weight cut-off. Stock solutions for each test compound were prepared in DMSO at 1 mM and serially diluted to obtain a final test concentration of 1 μM. The subsequent dialysis solutions were prepared in plasma (supplemented with NaEDTA as anticoagulant), and aliquots of 200 μL test compound dialysis solution in plasma were dispensed into the donor (plasma) chambers. Aliquots of 200 μL dialysis buffer (100 mM potassium phosphate, pH 7.4) were dispensed into the buffer (acceptor) chamber. Incubation was carried out for 2 hours under rotation at 37° C. for establishing equilibrium.
At the end of the dialysis period, aliquots obtained from donor and acceptor chambers, respectively, were transferred into reaction tubes, spiked with Internal Standard solution and processed for HPLC-MS/MS analysis. Analyte concentrations were quantified in aliquots of samples by HPLC-MS/MS against external calibration curves.
Percent bound was calculated using the formula: % bound=(plasma concentration−buffer concentration/plasma concentration)×100

human hepatocytes = test: Metabolic stability in human hepatocytes; assay type: in vitro ADME; conditions: human hepatocyte suspension, 1 μM; predicted hepatic clearance as percentage of hepatic blood flow
Description: The metabolic degradation of a test compound was assayed in a human hepatocyte suspension. After recovery from cryopreservation, human hepatocytes were diluted in Dulbecco's modified eagle medium (supplemented with 3.5 μg glucagon/500 mL, 2.5 mg insulin/500 mL, 3.75 mg hydrocortisone/500 mL, 5% human serum) to obtain a final cell density of 1.0×10^6 cells/mL or 4.0×10^6 cells/mL, depending on the metabolic turnover rate of the test compound.
Following a 30 minutes preincubation in a cell culture incubator (37° C., 10% CO2), test compound solution was spiked into the hepatocyte suspension, resulting in a final test compound concentration of 1 μM and a final DMSO concentration of 0.05% (v/v).
The cell suspension was incubated at 37° C. (cell culture incubator, horizontal shaker) and samples were removed from the incubation after 0, 0.5, 1, 2, 4 and 6 hours. Samples were quenched with acetonitrile (containing internal standard) and pelleted by centrifugation. The supernatant was transferred to a 96-deepwell plate, and prepared for analysis of decline of parent compound by HPLC-MS/MS.
The percentage of remaining test compound was calculated using the peak area ratio (test compound/internal standard) of each incubation time point relative to the time point 0 peak area ratio. The log-transformed data were plotted versus incubation time, and the absolute value of the slope obtained by linear regression analysis was used to estimate in vitro half-life (T1/2).
In vitro intrinsic clearance (CLint) was calculated from in vitro T1/2 and scaled to whole liver using a hepatocellularity of 120×10^6 cells/g liver, a human liver per body weight of 25.7 g liver/kg as well as in vitro incubation parameters, applying the following equation: CL_[…]_IN VIVO[mL/min/kg]=(CL_[…][μL/min/10^6 cells]×hepatocellularity[10^6 cells/g liver]×liver factor[g/kg body weight])/1000
Hepatic in vivo blood clearance (CL) was predicted according to the well-stirred liver model considering an average liver blood flow (QH) of 20.7 mL/min/kg: CL[mL/min/kg]=CL_[…]_IN VIVO[mL/min/kg]×hepatic blood flow[mL/min/kg]/(CL_[…]_IN VIVO[mL/min/kg]+hepatic blood flow[mL/min/kg])
Results were expressed as percentage of hepatic blood flow: QH[%]=CL[mL/min/kg]/hepatic blood flow[mL/min/kg])

Chain of human GPR52 (Q9Y2T5 whole entry): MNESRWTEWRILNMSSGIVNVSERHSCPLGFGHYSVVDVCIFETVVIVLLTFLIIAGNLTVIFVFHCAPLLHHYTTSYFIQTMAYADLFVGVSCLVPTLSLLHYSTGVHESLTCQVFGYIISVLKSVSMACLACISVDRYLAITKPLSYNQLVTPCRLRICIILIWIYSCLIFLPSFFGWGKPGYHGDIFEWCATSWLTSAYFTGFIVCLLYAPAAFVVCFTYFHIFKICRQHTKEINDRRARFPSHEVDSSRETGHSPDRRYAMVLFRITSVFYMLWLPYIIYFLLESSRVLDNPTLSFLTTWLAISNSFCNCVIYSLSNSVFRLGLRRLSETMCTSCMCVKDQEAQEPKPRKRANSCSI

Row | EC50 (human GPR52) | Hu PPB (human plasma proteins) | Human HepStab (human hepatocytes) | Compound | IC50 (hERG channel)
1 | 1170 nM | – | – | CC(=O)N1CC(F)C(NC(=O)c2nsnc2N2CC(Oc3ccc(F)c(F)c3)C2)C1 (single isomer, unassigned) [Example 14a] | –
2 | 11 nM | 89.7 % bound | – | CC(=O)N1CC(F)C(NC(=O)c2nsnc2N2CC(Oc3ccc(F)c(F)c3)C2)C1 (single isomer, unassigned) [Example 14b] | > 10000 nM
3 | 210 nM | – | – | CC(=O)N1CCC(NC(=O)c2nsnc2N2CC(Oc3ccc(F)c(F)c3)C2)C1 (single isomer, unassigned) [Example 16b] | > 10000 nM
4 | 1330 nM | – | – | CC(=O)N1C[C@@H](NC(=O)c2nccnc2N2CC(Oc3cc(F)cc(F)c3)C2)C(F)(F)C1 [Example 10b] | –
5 | – | – | <4.1 % QH | CC(=O)N1CC(F)C(NC(=O)c2nsnc2N2CC(Oc3ccc(F)c(F)c3)C2)C1 (stereo not shown) [Example 14b] | –
6 | 168 nM | – | – | CC(=O)N1CC[C@H](NC(=O)c2nsnc2N2CC(Oc3cc(F)cc(F)c3)C2)C1 [Example 15b] | –
7 | 11 nM | 86.2 % bound | <4.1 % QH | CC(=O)N1CCC(NC(=O)c2nsnc2N2CC(Oc3ccc(F)c(F)c3)C2)C1 (stereo not shown) [Example 16a] | > 10000 nM

Further lines, the molecule ahead of its results:

Row | Compound | EC50 (human GPR52) | Hu PPB (human plasma proteins) | Human HepStab (human hepatocytes) | IC50 (hERG channel)
8 | CC(=O)N1CC(NC(=O)c2nccnc2N2CC(Oc3ccc(F)c(Cl)c3)C2)C(F)(F)C1 (racemic) [Example 1] | 15 nM | 92.6 % bound | 11.1 % QH | > 10000 nM
9 | [2H]C([2H])([2H])C(=O)N1CC(NC(=O)c2nccnc2N2CC(Oc3ccc(F)c(F)c3)C2)C(F)(F)C1 (racemic) [Example 4] | 18 nM | 79.2 % bound | 8.5 % QH | > 10000 nM
10 | CC(=O)N1CC(NC(=O)c2nccnc2N2CC(Oc3cc(F)cc(Cl)c3)C2)C(F)(F)C1 (racemic) [Example 5] | 27 nM | 93.2 % bound | 17.0 % QH | > 10000 nM
11 | CC(=O)N1CC(NC(=O)c2nccnc2N2CC(Oc3cc(F)cc(OC(F)F)c3)C2)C(F)(F)C1 (racemic) [Example 7] | 102 nM | – | 15.4 % QH | –
12 | CS(=O)(=O)N1CC(NC(=O)c2nccnc2N2CC(Oc3cc(F)c(F)c(F)c3)C2)C(F)(F)C1 (racemic) [Example 9] | 19 nM | 93.4 % bound | 5.8 % QH | > 10000 nM
13 | O=C(NC1CNCC1(F)F)c1nccnc1N1CC(Oc2cc(F)c(F)c(F)c2)C1 (racemic) [Intermediate H-3] | 378 nM | 88.2 % bound | 27.7 % QH | –
14 | CCC(=O)N1CC(NC(=O)c2nccnc2N2CC(Oc3ccc(F)c(F)c3)C2)C(F)(F)C1 (stereo not shown) [Example 2] | 24 nM | 89.9 % bound | 21.3 % QH | 6600 nM
15 | CC(=O)N1CC(NC(=O)c2nccnc2N2CC(Oc3cc(F)cc(C(F)F)c3)C2)C(F)(F)C1 (stereo not shown) [Example 6] | 54 nM | 87.8 % bound | 4.8 % QH | > 10000 nM
16 | CC(=O)N1CC2(NC(=O)c3nsnc3N3CC(Oc4cc(F)c(F)c(F)c4)C3)CC1C2 [Example 12] | 24 nM | 88.5 % bound | 5.0 % QH | > 10000 nM
